Reference: PubChem BioAssay (NCI)
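Cultured in 96-well plates, cells were exposed to test compound for 48 hours across five concentrations. TGI: concentration producing complete growth inhibition.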

Tests used:
Assay in all cases: NCI tumour cell line growth inhibition, 48 h
[1] = system: 786-0 renal
[2] = system: A498 renal
[3] = system: A549 NSCLC
[4] = system: ACHN renal
[5] = system: CAKI-1 renal
[6] = system: CCRF-CEM leukemia
[7] = system: COLO 205 colon
[8] = system: DLD-1 colon
[9] = system: DMS 114 small cell lung
[10] = system: DMS 273 small cell lung
[11] = system: EKVX NSCLC
[12] = system: HCC-2998 colon
[13] = system: HCT-116 colon
[14] = system: HCT-15 colon
[15] = system: HL-60(TB) leukemia
[16] = system: HOP-62 NSCLC
[17] = system: IGROV1 ovarian
[18] = system: K-562 leukemia
[19] = system: KM12 colon
[20] = system: KM20L2 colon
[21] = system: LOX IMVI melanoma
[22] = system: LXFL 529 NSCLC
[23] = system: M14 melanoma
[24] = system: M19-MEL melanoma
[25] = system: MALME-3M melanoma
[26] = system: MOLT-4 leukemia
[27] = system: NCI-H226 lung
[28] = system: NCI-H23 lung
[29] = system: NCI-H460 lung
[30] = system: NCI-H522 lung
[31] = system: OVCAR-3 ovarian
[32] = system: OVCAR-4 ovarian
[33] = system: OVCAR-5 ovarian
[34] = system: OVCAR-8 ovarian
[35] = system: RPMI-8226 leukemia
[36] = system: RXF 393 renal
[37] = system: SF-268 CNS
[38] = system: SF-295 CNS
[39] = system: SF-539 CNS
[40] = system: SK-MEL-28 melanoma
[41] = system: SK-MEL-5 melanoma
[42] = system: SK-OV-3 ovarian
[43] = system: SN12C renal
[44] = system: SNB-19 CNS
[45] = system: SNB-78 CNS
[46] = system: SR leukemia
[47] = system: SW-620 colon
[48] = system: TK-10 renal
[49] = system: U251 CNS
[50] = system: UACC-257 melanoma
[51] = system: UACC-62 melanoma
[52] = system: UO-31 renal
[53] = system: XF 498 CNS
[54] = system: HOP-18 NSCLC
[55] = system: HOP-92 NSCLC
[56] = system: HT29 colon
[57] = system: SK-MEL-2 melanoma
[58] = system: SNB-75 CNS

COC(=O)C1CCC2(C)[C@H](CCC3O[C@]32C)[C@@]1(C)CC(=O)c1ccoc1 (some centres undefined)
TGI [1]: > 100 µM
TGI [2]: > 100 µM
TGI [3]: > 100 µM
TGI [4]: > 100 µM
TGI [5]: > 100 µM
TGI [6]: > 100 µM
TGI [7]: > 100 µM
TGI [8]: > 100 µM
TGI [9]: > 100 µM
TGI [10]: > 100 µM
TGI [11]: > 100 µM
TGI [12]: > 100 µM
TGI [13]: > 100 µM
TGI [14]: > 100 µM
TGI [15]: > 100 µM
TGI [16]: > 100 µM
TGI [17]: > 100 µM
TGI [18]: > 100 µM
TGI [19]: > 100 µM
TGI [20]: > 100 µM
TGI [21]: > 100 µM
TGI [22]: > 100 µM
TGI [23]: > 100 µM
TGI [24]: > 100 µM
TGI [25]: > 100 µM
TGI [26]: > 100 µM
TGI [27]: > 100 µM
TGI [28]: > 100 µM
TGI [29]: > 100 µM
TGI [30]: > 100 µM
TGI [31]: > 100 µM
TGI [32]: > 100 µM
TGI [33]: > 100 µM
TGI [34]: > 100 µM
TGI [35]: > 100 µM
TGI [36]: > 100 µM
TGI [37]: > 100 µM
TGI [38]: > 100 µM
TGI [39]: > 100 µM
TGI [40]: > 100 µM
TGI [41]: > 100 µM
TGI [42]: > 100 µM
TGI [43]: > 100 µM
TGI [44]: > 100 µM
TGI [45]: > 100 µM
TGI [46]: > 100 µM
TGI [47]: > 100 µM
TGI [48]: > 100 µM
TGI [49]: > 100 µM
TGI [50]: > 100 µM
TGI [51]: > 100 µM
TGI [52]: > 100 µM
TGI [53]: > 100 µM

Cc1ccccc1N(CC(=O)O)S(=O)(=O)c1ccccc1
TGI [1]: > 100 µM
TGI [2]: > 100 µM
TGI [3]: > 100 µM
TGI [4]: > 100 µM
TGI [5]: > 100 µM
TGI [6]: > 100 µM
TGI [7]: > 100 µM
TGI [8]: > 100 µM
TGI [10]: > 100 µM
TGI [11]: > 100 µM
TGI [12]: > 100 µM
TGI [14]: > 100 µM
TGI [15]: > 100 µM
TGI [54]: > 100 µM
TGI [55]: > 100 µM
TGI [56]: > 100 µM
TGI [17]: > 100 µM
TGI [18]: > 100 µM
TGI [19]: > 100 µM
TGI [20]: > 100 µM
TGI [21]: > 100 µM
TGI [22]: > 100 µM
TGI [23]: > 100 µM
TGI [24]: > 100 µM
TGI [25]: > 100 µM
TGI [26]: > 100 µM
TGI [27]: > 100 µM
TGI [28]: > 100 µM
TGI [29]: > 100 µM
TGI [30]: > 100 µM
TGI [31]: > 100 µM
TGI [32]: > 100 µM
TGI [33]: > 100 µM
TGI [34]: > 100 µM
TGI [35]: > 100 µM
TGI [36]: > 100 µM
TGI [37]: > 100 µM
TGI [38]: > 100 µM
TGI [39]: > 100 µM
TGI [57]: > 100 µM
TGI [40]: > 100 µM
TGI [41]: > 100 µM
TGI [42]: > 100 µM
TGI [43]: > 100 µM
TGI [44]: > 100 µM
TGI [58]: > 100 µM
TGI [47]: > 100 µM
TGI [48]: > 100 µM
TGI [49]: > 100 µM
TGI [50]: > 100 µM
TGI [51]: > 100 µM
TGI [52]: > 100 µM
TGI [53]: > 100 µM

Cc1cc([N+](=O)[O-])ccc1Sc1c2ccccc2nc2ccccc12
TGI [1]: 55.5 µM
TGI [2]: > 100 µM
TGI [3]: > 100 µM
TGI [4]: > 100 µM
TGI [5]: 97.3 µM
TGI [6]: 79.5 µM
TGI [7]: > 100 µM
TGI [8]: > 100 µM
TGI [10]: > 100 µM
TGI [11]: > 100 µM
TGI [12]: 56.1 µM
TGI [13]: 66.6 µM
TGI [14]: 57.2 µM
TGI [15]: 49.1 µM
TGI [54]: > 100 µM
TGI [16]: > 100 µM
TGI [55]: 98.2 µM
TGI [17]: > 100 µM
TGI [18]: > 100 µM
TGI [19]: 32.7 µM
TGI [20]: 89.8 µM
TGI [21]: 38.6 µM
TGI [22]: 45.5 µM
TGI [23]: > 100 µM
TGI [25]: > 100 µM
TGI [26]: 73.1 µM
TGI [27]: > 100 µM
TGI [28]: 79.2 µM
TGI [29]: > 100 µM
TGI [30]: 38.9 µM
TGI [31]: > 100 µM
TGI [32]: > 100 µM
TGI [33]: > 100 µM
TGI [34]: 84.4 µM
TGI [36]: > 100 µM
TGI [37]: > 100 µM
TGI [38]: > 100 µM
TGI [39]: 56.5 µM
TGI [57]: 55.9 µM
TGI [40]: > 100 µM
TGI [41]: > 100 µM
TGI [42]: > 100 µM
TGI [43]: 93.3 µM
TGI [44]: > 100 µM
TGI [58]: > 100 µM
TGI [46]: 70.1 µM
TGI [47]: > 100 µM
TGI [48]: > 100 µM
TGI [49]: 78.9 µM
TGI [50]: 71.3 µM
TGI [51]: 66.8 µM
TGI [52]: > 100 µM
TGI [53]: 50 µM
